These results are taken from article PMC3907537, “Evaluation of the Endothelin Receptor Antagonists Ambrisentan, Bosentan, Macitentan, and Sitaxsentan as Hepatobiliary Transporter Inhibitors and Substrates in Sandwich-Cultured Human Hepatocytes” (PLoS ONE, 2014).

SMILES strings stand for the structures. Like-named read-outs stand apart in the source and are kept apart here.

Experiment [1] concerns the target T1, OATP1B1 (Homo sapiens, UniProt Q9Y6L6).
T1 construct: host or cells: CHO
T1 sequence (Q9Y6L6 1-691): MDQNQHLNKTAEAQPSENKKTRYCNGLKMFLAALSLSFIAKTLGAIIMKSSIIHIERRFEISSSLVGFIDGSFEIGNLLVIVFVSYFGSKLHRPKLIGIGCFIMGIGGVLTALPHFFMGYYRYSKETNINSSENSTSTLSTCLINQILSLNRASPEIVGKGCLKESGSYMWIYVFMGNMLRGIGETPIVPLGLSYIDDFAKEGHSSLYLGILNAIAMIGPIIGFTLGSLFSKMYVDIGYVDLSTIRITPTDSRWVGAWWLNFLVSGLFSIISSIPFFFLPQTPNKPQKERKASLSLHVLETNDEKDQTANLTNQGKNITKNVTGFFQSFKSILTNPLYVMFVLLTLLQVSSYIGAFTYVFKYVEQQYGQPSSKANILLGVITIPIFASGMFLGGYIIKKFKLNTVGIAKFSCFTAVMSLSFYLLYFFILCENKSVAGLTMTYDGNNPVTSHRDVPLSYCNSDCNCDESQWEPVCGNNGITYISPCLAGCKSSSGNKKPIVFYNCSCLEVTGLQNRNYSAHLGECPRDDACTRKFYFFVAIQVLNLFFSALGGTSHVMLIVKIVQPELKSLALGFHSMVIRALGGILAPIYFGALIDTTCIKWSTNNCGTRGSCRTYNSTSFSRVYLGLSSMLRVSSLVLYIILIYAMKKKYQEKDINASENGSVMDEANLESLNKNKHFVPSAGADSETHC
As to the kind of experiment: OATP1B1 inhibition, Fluo 3 uptake in transfected CHO cells. Type of experiment: cell-based. The source says: (§1) Chinese Hamster Ovary (CHO) cells were obtained from Professor B. Stieger’s laboratory at University of Zurich, Zurich, Switzerland. Madin-Darby Canine Kidney strain II (MDCKII) cells were obtained from Nederlands Kanker Instituut (NKI), Amsterdam, Netherlands. NTCP-CHO cells, BSEP and MRP2 membrane vesicles were developed and validated at Solvo Biotechnology, Budaors, Hungary.
CHO cells, either wild type or transfected with the genes encoding human NTCP, OATP1B1 and OATP1B3, were maintained in Dulbecco’s Modification of Eagle’s Medium (DMEM) containing 1,000 mg/L D-glucose, L-glutamine, 25 mM HEPES buffer, 110 mg/L sodium pyruvate, 1% Penicillin/Streptomycin, 10% fetal bovine serum (FBS), 0.05 mg/mL L proline and 0.5 mg/mL of geneticin G-418. Cells were maintained in incubators set at 37°C, 90% humidity and 5% CO2. OATP1B1 and OATP1B3 over-expressing cells were seeded in BioCoat Poly-D-Lysine coated 96-well black cell culture plates with clear bottoms at a density of 1×10^5 cells/well. Sodium butyrate (10 mM) was added to the OATP1B1 and OATP1B3 cells once seeded to increase the protein expression level and the cells were grown to confluence overnight. The assay buffer contained 142 mM NaCl, 5 mM KCl, 1 mM KH2PO4, 1.2 mM MgSO4, 1.5 mM CaCl2, 5 mM Glucose and 12.5 mM HEPES (pH 7.4). After removal of the media and before adding test compounds, the cells were washed twice with 37°C assay buffer followed by a 0.5 h pre-incubation with assay buffer. […] Wells were analyzed for Fluo 3 fluorescence at an excitation of 485 nm and emission of 530 nm. Inhibition of NTCP was studied using similar conditions to those described for OATP1B1 and OATP1B3 except that inhibition of the uptake ^3H taurocholate into transfected CHO cells was monitored using radioactive scintillation counting.
All assays were performed in duplicate. […] IC50 values were calculated using non-linear fitting of % inhibition versus concentration to a sigmoidal curve with a variable Hill Coefficient using GraphPad Prism 5 (GraphPad Software Inc., San Diego, CA).

Experiment [2] addresses T2, BCRP (Homo sapiens, UniProt Q9UNQ0).
T2 construct: host or cells: MDCKII
T2 sequence (Q9UNQ0 1-655): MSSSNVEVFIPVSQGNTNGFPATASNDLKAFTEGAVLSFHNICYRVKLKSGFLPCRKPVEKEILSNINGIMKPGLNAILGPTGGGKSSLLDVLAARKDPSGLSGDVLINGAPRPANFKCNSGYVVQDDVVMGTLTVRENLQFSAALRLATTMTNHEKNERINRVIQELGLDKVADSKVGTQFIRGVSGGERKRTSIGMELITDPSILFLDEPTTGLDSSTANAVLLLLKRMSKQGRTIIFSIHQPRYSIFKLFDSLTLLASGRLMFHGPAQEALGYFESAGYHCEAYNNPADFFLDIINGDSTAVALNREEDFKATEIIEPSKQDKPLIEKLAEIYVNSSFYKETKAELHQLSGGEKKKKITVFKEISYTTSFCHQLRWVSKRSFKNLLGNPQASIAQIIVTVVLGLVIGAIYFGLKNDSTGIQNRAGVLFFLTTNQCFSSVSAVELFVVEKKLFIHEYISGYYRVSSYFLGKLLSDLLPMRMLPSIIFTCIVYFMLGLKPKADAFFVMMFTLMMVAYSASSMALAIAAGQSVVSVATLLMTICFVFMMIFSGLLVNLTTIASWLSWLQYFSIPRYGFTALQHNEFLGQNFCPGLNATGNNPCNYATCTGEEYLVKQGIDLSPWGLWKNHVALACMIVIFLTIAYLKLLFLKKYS
As to the kind of experiment: BCRP inhibition in MDCKII-ABCG2 cells. Conditions: mean ± SD of 3 independent studies in duplicate, tested 0.14–100 µM. It is filed as cell-based.
Text: as §1
MDCKII cells were maintained in DMEM with sodium pyruvate, Glutmax, 1% Penicillin/Streptomycin and 10% FBS in an incubator set at 37°C, 90% humidity and 5% CO2. MDCKII cells were seeded in 96-well black cell culture plates with clear bottoms at a density of 5×10^4 cells/well for Pgp and 2×10^4 cells/well for BCRP and grown to confluence. For the Pgp assay, test compounds were serially diluted in DMSO and then added into in cell culture medium (without FBS) containing 10 µM Calcein AM and incubated for 1 h. Following the removal of media containing Calcein AM and test compound, cells were washed five times with […] phosphate buffered saline containing magnesium and calcium (PBS). Wells were analyzed for Calcein AM fluorescence at an excitation of 494 nm and an emission of 517 nm. For the BCRP assay, test compounds were serially diluted DMSO and then spiked in cell culture medium (without FBS) containing 1 µM pheophorbide a (PhA) and incubated for 18 hours with MDCKII-ABCG2 cells. Following the removal of media containing PhA and test compound, cells were then washed five times with PBS. Wells were analyzed for PhA fluorescence at an excitation of 415 nm and an emission of 675 nm.
All assays were performed in duplicate. IC50 was defined as the test article concentration needed to inhibit the maximal transporter specific accumulation by 50%. IC50 values were calculated using non-linear fitting of % inhibition versus concentration to a sigmoidal curve with a variable Hill Coefficient using GraphPad Prism 5 (GraphPad Software Inc., San Diego, CA).

Where [3] appears, read: CHO cells, Fluo 3, mean ± SD of 3 independent studies in duplicate, tested 0.14–100 µM, read-out: OATP1B1 IC50.

On to `COC(c1ccccc1)(c1ccccc1)[C@H](Oc1nc(C)cc(C)n1)C(=O)O` [ambrisentan], for which the IC50 was 47 ± 21.3 µM in experiment [1] and above 100 µM in experiment [2].

As to `COc1ccccc1Oc1c(NS(=O)(=O)c2ccc(C(C)(C)C)cc2)nc(-c2ncccn2)nc1OCCO` [bosentan], the IC50 is 5 ± 2 µM in experiment [1] (setting [3]) and above 100 µM in experiment [2].

For `CCCNS(=O)(=O)Nc1ncnc(OCCOc2ncc(Br)cn2)c1-c1ccc(Br)cc1` [macitentan], the IC50 in experiment [1] (setting [3]) is 2 ± 0.3 µM; in experiment [2] it was 75 ± 37 µM.
